Experimental findings from ChEMBL document CHEMBL5625178, “The topoisomerase II β -kinase associated with HIV-1 is a potential target for pyridine-bischalcones' anti-HIV-1 activity” (Eur J Med Chem, 2023) are described below.

Series [1] in a line: Cytotoxicity against human SUP-T1 cells assessed as reduction in cell viability incubated for 16 hrs by MTT assay. Type of series: toxicity, cell-based. (Formazan colour is commonly taken as a measure of viable cells.)
Series [2] has as its system Human immunodeficiency virus 1. As to the kind of experiment: Antiviral activity against HIV1 infected in human SUP-T1 cells assessed as inhibition of viral replication incubated for 5 hrs by sandwich ELISA method. Type of series: functional, organism-based.
Series [3] is described as follows: (§1) Inhibition of HIV-1 topoisomerase II beta kinase phosphorylation in the presence of […][gamma 32P]-ATP incubated for 30 mins by liquid scintillation counter analysis. More on the design: species or system Human immunodeficiency virus 1.
The next series concerns SUP-T1. As to the kind of experiment: Inhibition of Topoisomerase II beta serine phosphorylation in human SUP-T1 cells infected with HIV1 93IN101 by Western blot analysis. As to conditions: dose 5-50 nM. Type of series: cell-based.
Series [4] has as its system Human immunodeficiency virus 1. As to the kind of experiment: Antiviral activity against HIV1 93IN101 infected in human SUP-T1 cells assessed as suppression of proviral DNA synthesis at IC50 concentration incubated for 5 hrs by PCR analysis. Type of series: functional, organism-based.
In series [5] the test system is Human immunodeficiency virus 1. The series is described as §1. Conditions: dose 0.25-600 pM.

Each structure is given as a SMILES string. Calls of active or inactive are those of the source. No cut-off for these calls is given here.

One may read the CC50 as the concentration at which the toxic effect on the cells reaches its halfway point. In general, IC50 refers to the point on the concentration scale where inhibition reaches its midpoint. Turning to `O=C1/C(=C/c2cccnc2)CCC/C1=C\c1cccnc1`, in series [1], the CC50 at 16 h turned out to be 960 nM. Besides, the Activity entry in series [2] is “Dose-Dependent Effect”. The IC50 in series [3] came to 0.32 nM.
Regarding `Cc1cn([C@H]2C[C@H](N=[N+]=[N-])[C@@H](CO)O2)c(=O)[nH]c1=O`, the Activity entry in series [2] was “Dose-Dependent Effect”.
For the compound `C[n+]1ccc(/C=C2\CCC/C(=C\c3cc[n+](C)cc3)C2=O)cc1`, the CC50 at 16 h in series [1] worked out at 2020 nM. In addition, the Activity entry in series [2] was “Dose-Dependent Effect”. In addition, in the series on SUP-T1, the inhibition result was “Dose-Dependent Effect”. Further, the IC50 in series [3] stood at 0.15 nM. The outcome in series [4] was Active.
For the compound `c1ccc(-c2cccnc2)cc1`, the CC50 at 16 h in series [1] worked out at 1500 nM. Besides, the inhibition result in series [5] is “Dose-Dependent Effect”.
As to `O=C1/C(=C/c2ccccn2)CCC/C1=C\c1ccccn1`, the 50% cytotoxic concentration (CC50) at 16 h in series [1] stood at 920 nM. Moreover, the Activity entry in series [2] was “Dose-Dependent Effect”. Besides, in series [3], the concentration for half-maximal inhibition (IC50) was determined as 0.55 nM.
As for `C[n+]1ccccc1/C=C1\CCC/C(=C\c2cccc[n+]2C)C1=O`, the cytotoxic concentration (CC50) at 16 h in series [1] is 2040 nM. Further, the Activity entry in series [2] is “Dose-Dependent Effect”. Further, the inhibition entry with SUP-T1 was “Dose-Dependent Effect”. In series [3], the 50% inhibitory concentration (IC50) turned out to be 0.14 nM. Also, in series [4], the outcome was Active.
With `O=C1/C(=C/c2ccncc2)CCC/C1=C\c1ccncc1`, the CC50 at 16 h in series [1] amounted to 820 nM. In series [2], the Activity result was “Dose-Dependent Effect”. For the same compound, the inhibition result in series [5] was “Dose-Dependent Effect”. Moreover, in series [3], the IC50 came out at 0.44 nM.
With `C[n+]1cccc(/C=C2\CCC/C(=C\c3ccc[n+](C)c3)C2=O)c1`, the CC50 at 16 h in series [1] came to 2120 nM. For the same compound, in series [2], the Activity result is “Dose-Dependent Effect”. For the same compound, the inhibition result in the series on SUP-T1 was “Dose-Dependent Effect”. Besides, the IC50 in series [3] was determined as 0.1 nM. For the same compound, the result in series [4] was Active.
